Read-outs that look alike come from different tables or passages of the source.
Columns and labels:
[1] = test system: S. aureus MSSA-7 producing penicillinase PC-1; assay: broth microdilution MIC, S. aureus PC-1; format: cell-based; conditions: Fixed Pip (piperacillin) 4 μg/mL
How it was run: (§1)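 Compounds were titrated in 2-fold steps from 32 to 0.25 μg/mL in cation-adjusted Mueller Hinton broth with a β-lactam held at 4 μg/mL. Plates were inoculated by CLSI broth microdilution with strains pre-grown 3–5 h. After 16–20 h at 37 °C, MIC was read visually.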

[2] = test system: K. pneumoniae 156319 expressing KPC-3; assay: broth microdilution MIC, K. pneumoniae KPC-3; format: cell-based; conditions: Fixed Mero (meropenem) 4 μg/mL
How it was run: as §1

KPC-2 β-lactamase = target: T1, KPC-2 β-lactamase (Klebsiella pneumoniae, UniProt Q9F663); assay: β-lactamase enzyme inhibition, KPC-2; format: biochemical
T1 construct: made in house; host or cells: E. coli BL21(DE3)
T1 sequence (Q9F663 25-293, looked up): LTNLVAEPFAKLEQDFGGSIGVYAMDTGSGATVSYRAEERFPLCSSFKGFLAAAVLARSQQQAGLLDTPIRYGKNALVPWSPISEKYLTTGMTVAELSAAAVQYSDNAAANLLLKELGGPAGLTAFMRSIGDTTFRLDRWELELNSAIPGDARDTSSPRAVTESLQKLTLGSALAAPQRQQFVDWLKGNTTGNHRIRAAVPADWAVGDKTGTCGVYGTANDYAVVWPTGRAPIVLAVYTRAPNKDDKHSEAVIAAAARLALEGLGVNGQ
How it was run: (§2)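 IC50 values reflect inhibitor concentrations halving the initial hydrolysis rate relative to uninhibited wells. Untagged recombinant enzymes were exposed to inhibitor at 37° C for 15 min before substrate addition: 100 μM nitrocefin for OXA-1 and p99 AmpC, imipenem for KPC-2, cefotaxime for SHV-5, each monitored spectrophotometrically for 10 min.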

[3] = test system: K. pneumoniae A-1797 expressing KPC-2 and VIM-4; assay: broth microdilution MIC, K. pneumoniae KPC-2 and VIM-4; format: cell-based; conditions: Fixed Mero (meropenem) 4 μg/mL
How it was run: as §1

OXA-1 β-lactamase = target: T2, OXA-1 β-lactamase (Escherichia coli, UniProt P13661); assay: β-lactamase enzyme inhibition, OXA-1; format: biochemical; conditions: Nitrocefin 100 μM, 486 nm; 15 min at 37° C. preincubation; read-out: IC50 OXA-1 (Class D)
T2 construct: made in house; host or cells: E. coli BL21(DE3)
T2 sequence (P13661 26-276): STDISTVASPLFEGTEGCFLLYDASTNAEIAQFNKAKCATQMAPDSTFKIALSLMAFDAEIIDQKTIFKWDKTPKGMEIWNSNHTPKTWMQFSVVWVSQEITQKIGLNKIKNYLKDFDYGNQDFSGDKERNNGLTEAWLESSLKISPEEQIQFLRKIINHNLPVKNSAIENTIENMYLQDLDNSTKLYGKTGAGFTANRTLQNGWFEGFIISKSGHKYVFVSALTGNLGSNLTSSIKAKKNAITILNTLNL
How it was run: as §2

SHV-5 β-lactamase = target: T3, SHV-5 β-lactamase (Klebsiella pneumoniae, UniProt P0A3M1); assay: β-lactamase enzyme inhibition, SHV-5; format: biochemical
T3 construct: made in house; host or cells: E. coli BL21(DE3)
T3 sequence (P0A3M1 22-286): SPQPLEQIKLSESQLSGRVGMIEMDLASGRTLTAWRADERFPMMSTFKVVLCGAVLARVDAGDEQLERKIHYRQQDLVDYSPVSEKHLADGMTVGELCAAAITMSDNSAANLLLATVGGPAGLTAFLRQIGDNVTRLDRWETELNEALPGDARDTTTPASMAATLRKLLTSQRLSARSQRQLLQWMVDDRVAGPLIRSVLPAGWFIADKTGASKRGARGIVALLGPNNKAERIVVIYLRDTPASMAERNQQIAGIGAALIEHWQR
How it was run: as §2

[4] = test system: E. coli ESBL4 expressing CTX-M-15; assay: broth microdilution MIC, E. coli CTX-M-15; format: cell-based; conditions: Fixed CAZ (ceftazidime) 4 μg/mL
How it was run: as §1

p99 AmpC β-lactamase = target: T4, p99 AmpC β-lactamase (Enterobacter cloacae, UniProt P05364); assay: β-lactamase enzyme inhibition, p99 AmpC; format: biochemical
T4 construct: made in house; host or cells: E. coli BL21(DE3)
T4 sequence (P05364 21-381): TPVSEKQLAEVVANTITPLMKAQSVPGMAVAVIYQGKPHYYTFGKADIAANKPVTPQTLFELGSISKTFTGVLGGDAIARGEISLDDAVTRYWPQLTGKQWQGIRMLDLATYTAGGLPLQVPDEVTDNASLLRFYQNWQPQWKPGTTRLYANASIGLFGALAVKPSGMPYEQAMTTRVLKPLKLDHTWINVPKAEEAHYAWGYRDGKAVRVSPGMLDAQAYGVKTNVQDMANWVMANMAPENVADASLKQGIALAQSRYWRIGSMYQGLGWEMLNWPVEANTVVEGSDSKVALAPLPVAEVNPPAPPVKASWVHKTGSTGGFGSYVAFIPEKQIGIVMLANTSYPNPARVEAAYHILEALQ
How it was run: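 Native untagged E. cloacae p99 AmpC was expressed in E. coli BL21(DE3) and purified by cation exchange and gel filtration. Enzyme was preincubated with inhibitor at 37°C for 15 min.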

[5] = test system: E. cloacae 144200 expressing Class C P99 AmpC; assay: broth microdilution MIC, E. cloacae P99; format: cell-based; conditions: Fixed CAZ (ceftazidime) 4 μg/mL
How it was run: as §1

[6] = target: T5, VIM-2 metallo β-lactamase (Pseudomonas aeruginosa, UniProt Q9K2N0); assay: β-lactamase enzyme inhibition, VIM-2; format: biochemical; conditions: Nitrocefin 100 μM, 486 nm; 15 min at 37° C. preincubation; read-out: IC50 VIM-2 (Class B)
T5 construct: made in house; host or cells: E. coli BL21(DE3)
How it was run: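 VIM-2 purified by Q sepharose anion exchange (50 mM Hepes pH 7.5, 0-600 mM NaCl gradient, two runs, >90% purity). Enzyme preincubated with inhibitor 15 min at 37° C; nitrocefin 100 μM final, absorbance at 486 nm followed 10 min. IC50 from initial hydrolysis rates versus inhibitor-free controls.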

[7] = test system: P. aeruginosa Ps296 expressing VIM-2; assay: broth microdilution MIC, P. aeruginosa VIM-2; format: cell-based; conditions: Fixed Mero (meropenem) 4 μg/mL
How it was run: as §1

[8] = imipenem substrate, 300 nm, 15 min at 37° C. preincubation, read-out: IC50 KPC-2 (Class A)

SMILES | MIC of exemplary compounds in presence of fixed β-lactams, S. aureus MSSA-7 PC-1 [1] | MIC of exemplary compounds in presence of fixed β-lactams, K.P. 156319 KPC-3 [2] | IC50 (KPC-2 β-lactamase; [8]) | MIC of exemplary compounds in presence of fixed β-lactams, K.P. A-1797 KPC-2 VIM-4 [3] | IC50 (OXA-1 β-lactamase) | IC50 (SHV-5 β-lactamase) | MIC of exemplary compounds in presence of fixed β-lactams, E. coli ESBL4 CTX-M-15 [4] | IC50 (p99 AmpC β-lactamase) | MIC of exemplary compounds in presence of fixed β-lactams, E. cl. 144200 p99 AmpC [5] | IC50 [6] | MIC of exemplary compounds in presence of fixed β-lactams, P. aerug. Ps296 VIM-2 [7] | IC50 (KPC-2 β-lactamase)
CC(Cl)(Cl)C(=O)N[C@H]1Cc2cccc(C(=O)O)c2OB1O [Example 11, (R)-3-(2,2-Dichloro-propionylamino)-2-hydroxy-3,4-dihydro-2H-benzo[e][1,2]oxaborinine-8-carboxylic acid] | C (C represents the MIC in the presence of ≤4 g/mL of a β-lactamase inhibitor) | C (C represents the MIC in the presence of ≤4 g/mL of a β-lactamase inhibitor) | < 100 nM | A (A represents an MIC of the fixed β-lactam antibiotic in the presence of >32 g/mL of a β-lactamase inhibitor) | < 100 nM | < 100 nM | C (C represents the MIC in the presence of ≤4 g/mL of a β-lactamase inhibitor) | < 100 nM | C (C represents the MIC in the presence of ≤4 g/mL of a β-lactamase inhibitor) | 1000 to 10000 nM | B (B represents the MIC in the presence of between 8 and 32 g/mL of a β-lactamase inhibitor) | 
O=C(Cc1ccc2c(c1)CNC2)N[C@H]1Cc2cccc(C(=O)O)c2OB1O [Example 64, (R)-3-(2-2,3-Dihydro-1H-isoindol-5-yl-acetylamino)-2-hydroxy-3,4-dihydro-2H-benzo[e][1,2]oxaborinine-8-carboxylic acid] | C (C represents the MIC in the presence of ≤4 g/mL of a β-lactamase inhibitor) | C (C represents the MIC in the presence of ≤4 g/mL of a β-lactamase inhibitor) | < 100 nM | B (B represents the MIC in the presence of between 8 and 32 g/mL of a β-lactamase inhibitor) | < 100 nM | < 100 nM | C (C represents the MIC in the presence of ≤4 g/mL of a β-lactamase inhibitor) | < 100 nM | C (C represents the MIC in the presence of ≤4 g/mL of a β-lactamase inhibitor) | 100 to 1000 nM | C (C represents the MIC in the presence of ≤4 g/mL of a β-lactamase inhibitor) | 
O=C(CCc1nccs1)N[C@H]1Cc2cccc(C(=O)O)c2OB1O [Example 31, (R)-2-hydroxy-3-(3-(thiazol-2-yl)propanamido)-3,4-dihydro-2H-benzo[e][1,2]oxaborinine-8-carboxylic acid] | C (C represents the MIC in the presence of ≤4 g/mL of a β-lactamase inhibitor) | C (C represents the MIC in the presence of ≤4 g/mL of a β-lactamase inhibitor) | < 100 nM | B (B represents the MIC in the presence of between 8 and 32 g/mL of a β-lactamase inhibitor) | < 100 nM | < 100 nM | C (C represents the MIC in the presence of ≤4 g/mL of a β-lactamase inhibitor) | < 100 nM | C (C represents the MIC in the presence of ≤4 g/mL of a β-lactamase inhibitor) | 1000 to 10000 nM | C (C represents the MIC in the presence of ≤4 g/mL of a β-lactamase inhibitor) | 
O=C(/C=C/c1cocn1)N[C@H]1Cc2cccc(C(=O)O)c2OB1O [Example 44, (R)-2-Hydroxy-3-(3-oxazol-4-yl-acryloylamino)-3,4-dihydro-2H-benzo[e][1,2]oxaborinine-8-carboxylicacid] | C (C represents the MIC in the presence of ≤4 g/mL of a β-lactamase inhibitor) | C (C represents the MIC in the presence of ≤4 g/mL of a β-lactamase inhibitor) | < 100 nM | B (B represents the MIC in the presence of between 8 and 32 g/mL of a β-lactamase inhibitor) | < 100 nM | < 100 nM | C (C represents the MIC in the presence of ≤4 g/mL of a β-lactamase inhibitor) | < 100 nM | C (C represents the MIC in the presence of ≤4 g/mL of a β-lactamase inhibitor) | 100 to 1000 nM | C (C represents the MIC in the presence of ≤4 g/mL of a β-lactamase inhibitor) | 
CC(=O)CCC(=O)N[C@H]1Cc2cccc(C(=O)O)c2OB1O [Example 10, (R)-2-Hydroxy-3-(4-oxo-pentanoylamino)-3,4-dihydro-2H-benzo[e][1,2]oxaborinine-8-carboxylic acid] | C (C represents the MIC in the presence of ≤4 g/mL of a β-lactamase inhibitor) | C (C represents the MIC in the presence of ≤4 g/mL of a β-lactamase inhibitor) |  | C (C represents the MIC in the presence of ≤4 g/mL of a β-lactamase inhibitor) | < 100 nM | < 100 nM | C (C represents the MIC in the presence of ≤4 g/mL of a β-lactamase inhibitor) | < 100 nM | C (C represents the MIC in the presence of ≤4 g/mL of a β-lactamase inhibitor) | 100 to 1000 nM | C (C represents the MIC in the presence of ≤4 g/mL of a β-lactamase inhibitor) | 100 to 1000 nM
CC(=O)N[C@H]1Cc2cccc(C(=O)O)c2OB1O [Example 61, (R)-3-Acetylamino-2-hydroxy-3,4-dihydro-2H-benzo[e][1,2]oxaborinine-8-carboxylic acid] | C (C represents the MIC in the presence of ≤4 g/mL of a β-lactamase inhibitor) | C (C represents the MIC in the presence of ≤4 g/mL of a β-lactamase inhibitor) | < 100 nM | B (B represents the MIC in the presence of between 8 and 32 g/mL of a β-lactamase inhibitor) | 100 to 1000 nM | 100 to 1000 nM | C (C represents the MIC in the presence of ≤4 g/mL of a β-lactamase inhibitor) | < 100 nM | C (C represents the MIC in the presence of ≤4 g/mL of a β-lactamase inhibitor) | 1000 to 10000 nM | C (C represents the MIC in the presence of ≤4 g/mL of a β-lactamase inhibitor) | 
O=C(CN1CCCC1=O)N[C@H]1Cc2cccc(C(=O)O)c2OB1O [Example 33, (R)-2-Hydroxy-3-[2-(2-oxo-pyrrolidin-1-yl)-acetylamino]-3,4-dihydro-2H-benzo[e][1,2]oxaborinine-8-carboxylic acid] | C (C represents the MIC in the presence of ≤4 g/mL of a β-lactamase inhibitor) | C (C represents the MIC in the presence of ≤4 g/mL of a β-lactamase inhibitor) | < 100 nM | C (C represents the MIC in the presence of ≤4 g/mL of a β-lactamase inhibitor) | < 100 nM | < 100 nM | C (C represents the MIC in the presence of ≤4 g/mL of a β-lactamase inhibitor) | < 100 nM | C (C represents the MIC in the presence of ≤4 g/mL of a β-lactamase inhibitor) | 1000 to 10000 nM | C (C represents the MIC in the presence of ≤4 g/mL of a β-lactamase inhibitor) | 

Reference: patent US11008346B2, “Beta-lactamase inhibitors” (priority 2014, dated 2021)
